Where a SMILES comes first, the peptide text is derived from it. [ ]: non-standard residue; d: D form. Phe(4-I) = N[C@@H](Cc1ccc(I)cc1)C(=O)O; dPhe(4-I) = N[C@H](Cc1ccc(I)cc1)C(=O)O; Tic = O=C(O)[C@@H]1Cc2ccccc2CN1; dTic = O=C(O)[C@H]1Cc2ccccc2CN1
Experiments:
Assay type in all cases: functional, cell-based
Melanocortin receptor 4 [1] = target: Melanocortin receptor 4 (Homo sapiens, UniProt P32245); assay: Agonist activity at wild type human melanocortin-4 receptor expressed in HEK293 cells co-transfected with CRE/beta-galactosidase reporter gene assessed as stimulatory response after 6 hrs
Melanocortin receptor 4 [2] = target: Melanocortin receptor 4 (Homo sapiens, UniProt P32245, L106P); assay: Agonist activity at human melanocortin-4 receptor L106P mutant expressed in HEK293 cells co-transfected with CRE/beta-galactosidase reporter gene assessed as stimulatory response after 6 hrs
Melanocortin receptor 3 = Melanocortin receptor 3 (Mus musculus, UniProt P33033); assay: Agonist activity at mouse melanocortin-3 receptor expressed in HEK293 cells co-transfected with CRE/beta-galactosidase reporter gene assessed as stimulatory response after 6 hrs
Melanocortin receptor 4 [3] = target: Melanocortin receptor 4 (Homo sapiens, UniProt P32245, C271Y); assay: Agonist activity at human melanocortin-4 receptor C271Y mutant expressed in HEK293 cells co-transfected with CRE/beta-galactosidase reporter gene assessed as stimulatory response after 6 hrs
[4] = target: Melanocyte-stimulating hormone receptor (Mus musculus, UniProt Q01727); assay: Agonist activity at mouse melanocortin-1 receptor expressed in HEK293 cells co-transfected with CRE/beta-galactosidase reporter gene assessed as stimulatory response after 6 hrs
Melanocortin receptor 4 [5] = target: Melanocortin receptor 4 (Homo sapiens, UniProt P32245, I102S); assay: Agonist activity at human melanocortin-4 receptor I102S mutant expressed in HEK293 cells co-transfected with CRE/beta-galactosidase reporter gene assessed as stimulatory response after 6 hrs

SMILES	EC50 (Melanocortin receptor 4 [1])	EC50 (Melanocortin receptor 4 [2])	also measured
CC(=O)N[C@@H](CCCNC(=N)N)C(=O)N[C@H](Cc1ccc(Cl)cc1)C(=O)N1Cc2ccccc2C[C@H]1C(=O)N1Cc2ccccc2C[C@H]1C(N)=O	250 nM	2450 nM	–
CC(=O)N1Cc2ccccc2C[C@H]1C(=O)N[C@H](Cc1ccc(Cl)cc1)C(=O)N[C@@H](CCCNC(=N)N)C(=O)N1Cc2ccccc2C[C@H]1C(N)=O	960 nM	15500 nM	–
CC(=O)N1Cc2ccccc2C[C@@H]1C(=O)N[C@H](Cc1ccccc1)C(=O)N[C@@H](CCCN=C(N)N)C(=O)N[C@@H](Cc1c[nH]c2ccccc12)C(N)=O (Ac-[dTic][dF]RW-NH2)	297 nM	17900 nM	–
CC(=O)N1Cc2ccccc2CC1C(=O)N[C@H](Cc1ccc(Cl)cc1)C(=O)N[C@@H](CCCNC(=N)N)C(=O)N[C@@H](Cc1ccc(I)cc1)C(N)=O (some centres undefined)	2.6 nM	380 nM	–
CC(=O)N1Cc2ccccc2C[C@H]1C(=O)N[C@H](Cc1ccc(I)cc1)C(=O)N[C@@H](CCCNC(=N)N)C(=O)N1Cc2ccccc2C[C@H]1C(N)=O	280 nM	2260 nM	–
CC(=O)N[C@@H](Cc1c[nH]cn1)C(=O)N[C@H](Cc1ccc(Cl)cc1)C(=O)N[C@@H](CCCNC(=N)N)C(=O)N1Cc2ccccc2C[C@H]1C(N)=O	110 nM	7780 nM	–
CC(=O)N1Cc2ccccc2C[C@H]1C(=O)N[C@H](Cc1ccc(Cl)cc1)C(=O)N[C@@H](CCCNC(=N)N)C(=O)N[C@H](Cc1ccc([N+](=O)[O-])cc1)C(N)=O	40 nM	710 nM	–
CC(=O)N1Cc2ccccc2CC1C(=O)N[C@H](Cc1ccc(I)cc1)C(=O)N[C@@H](CCCNC(=N)N)C(=O)N[C@@H](Cc1ccc(I)cc1)C(N)=O (some centres undefined)	4.26 nM	440 nM	–
CC(=O)N[C@@H](CCCNC(=N)N)C(=O)N[C@H](Cc1ccccc1)C(=O)N[C@@H](CCCNC(=N)N)C(=O)N[C@@H](Cc1c[nH]c2ccccc12)C(N)=O	1.06 nM	124 nM	–
CC(=O)N[C@@H](CCCNC(=N)N)C(=O)N[C@H](Cc1ccc(Cl)cc1)C(=O)N1Cc2ccccc2CC1C(=O)N[C@H](Cc1ccc([N+](=O)[O-])cc1)C(N)=O (some centres undefined)	–	–	EC50 (Melanocortin receptor 3): 94 nM
CC(=O)N[C@@H](Cc1c[nH]cn1)C(=O)N[C@H](Cc1ccc(I)cc1)C(=O)N1Cc2ccccc2C[C@H]1C(=O)N1Cc2ccccc2C[C@H]1C(N)=O	24 nM	3760 nM	–
CC(=O)N[C@@H](CCCNC(=N)N)C(=O)N[C@H](Cc1ccc(Cl)cc1)C(=O)N[C@@H](CCCNC(=N)N)C(=O)N[C@@H](Cc1ccc(I)cc1)C(N)=O	–	13 nM	EC50 (Melanocortin receptor 4 [3]): > 100000 nM
CC(=O)N[C@@H](CCCNC(=N)N)C(=O)N[C@H](Cc1ccc(I)cc1)C(=O)N1Cc2ccccc2CC1C(=O)N[C@@H](Cc1ccc(I)cc1)C(N)=O (some centres undefined)	203 nM	2230 nM	–
CC(=O)N[C@@H](Cc1cnc[nH]1)C(=O)N[C@H](Cc1ccc(I)cc1)C(=O)N[C@@H](CCCNC(=N)N)C(=O)N[C@@H](Cc1ccc(I)cc1)C(N)=O (Ac-H[dPhe(4-I)]R[Phe(4-I)]-NH2)	–	–	EC50 [4]: 12 nM; EC50 (Melanocortin receptor 4 [3]): > 100000 nM
CC(=O)N[C@@H](Cc1c[nH]c2ccccc12)C(=O)N[C@H](Cc1ccccc1)C(=O)N[C@@H](CCCN=C(N)N)C(=O)N[C@@H](Cc1c[nH]c2ccccc12)C(N)=O (Ac-W[dF]RW-NH2)	32 nM	170 nM	–
CC(=O)N[C@@H](Cc1c[nH]cn1)C(=O)N[C@H](Cc1ccc(Cl)cc1)C(=O)N1Cc2ccccc2C[C@H]1C(=O)N1Cc2ccccc2C[C@H]1C(N)=O	160 nM	11400 nM	–
CC(=O)N1Cc2ccccc2C[C@H]1C(=O)N[C@H](Cc1ccc(I)cc1)C(=O)N[C@@H](CCCNC(=N)N)C(=O)N[C@H](Cc1ccc([N+](=O)[O-])cc1)C(N)=O	20 nM	657 nM	–
CC(=O)N1Cc2ccccc2CC1C(=O)N[C@H](Cc1ccc(Cl)cc1)C(=O)N1Cc2ccccc2CC1C(=O)N[C@@H](Cc1ccc(I)cc1)C(N)=O (some centres undefined)	120 nM	2670 nM	–
CC(=O)N[C@@H](Cc1cnc[nH]1)C(=O)N[C@H](Cc1ccc(Cl)cc1)C(=O)N1Cc2ccccc2CC1C(=O)N[C@H](Cc1ccc([N+](=O)[O-])cc1)C(N)=O (some centres undefined)	–	–	EC50 (Melanocortin receptor 3): 55 nM
CC(=O)N1Cc2ccccc2C[C@H]1C(=O)N[C@H](Cc1ccc(I)cc1)C(=O)N1Cc2ccccc2C[C@H]1C(=O)N[C@H](Cc1ccc([N+](=O)[O-])cc1)C(N)=O	5.1 nM	280 nM	–

SMILES	EC50 (Melanocortin receptor 4 [1])	EC50 (Melanocortin receptor 4 [2])	also measured
CC(=O)N[C@@H](Cc1ccc(O)cc1)C(=O)N[C@H](Cc1ccccc1)C(=O)N[C@@H](CCCNC(=N)N)C(=O)N[C@@H](Cc1c[nH]c2ccccc12)C(N)=O (Ac-Y[dF]RW-NH2)	6.2 nM	540 nM	–
CC(=O)N1Cc2ccccc2C[C@H]1C(=O)N[C@H](Cc1ccc(Cl)cc1)C(=O)N1Cc2ccccc2C[C@H]1C(=O)N[C@H](Cc1ccc([N+](=O)[O-])cc1)C(N)=O	9.6 nM	310 nM	–
CC(=O)N[C@@H](CCCNC(=N)N)C(=O)N[C@H](Cc1ccc(I)cc1)C(=O)N[C@@H](CCCNC(=N)N)C(=O)N[C@@H](Cc1ccc(I)cc1)C(N)=O	–	4.4 nM	EC50 (Melanocortin receptor 4 [5]): 3.5 nM; EC50 (Melanocortin receptor 4 [3]): > 100000 nM
CC(=O)N[C@@H](Cc1cnc[nH]1)C(=O)N[C@H](Cc1ccc(Cl)cc1)C(=O)N[C@@H](CCCNC(=N)N)C(=O)N[C@@H](Cc1ccc(I)cc1)C(N)=O	–	–	EC50 [4]: 19 nM
CC(=O)N[C@@H](Cc1cnc[nH]1)C(=O)N[C@H](Cc1ccc(I)cc1)C(=O)N1Cc2ccccc2CC1C(=O)N[C@H](Cc1ccc([N+](=O)[O-])cc1)C(N)=O (some centres undefined)	–	–	EC50 (Melanocortin receptor 3): 35 nM
CC(=O)N[C@@H](CCCNC(=N)N)C(=O)N[C@H](Cc1ccc(I)cc1)C(=O)N1Cc2ccccc2C[C@H]1C(=O)N1Cc2ccccc2C[C@H]1C(N)=O	2260 nM	27500 nM	–
CC(=O)N[C@@H](CCCNC(=N)N)C(=O)N[C@H](Cc1ccc(Cl)cc1)C(=O)N1Cc2ccccc2CC1C(=O)N[C@@H](Cc1ccc(I)cc1)C(N)=O (some centres undefined)	22 nM	215 nM	–
CC(=O)N[C@@H](Cc1cnc[nH]1)C(=O)N[C@H](Cc1ccccc1)C(=O)N[C@@H](CCCCN)C(=O)N[C@@H](Cc1c[nH]c2ccccc12)C(N)=O	40 nM	6240 nM	–
CC(=O)N[C@@H](CCCNC(=N)N)C(=O)N[C@H](Cc1ccc(I)cc1)C(=O)N1Cc2ccccc2CC1C(=O)N[C@H](Cc1ccc([N+](=O)[O-])cc1)C(N)=O (some centres undefined)	–	–	EC50 (Melanocortin receptor 3): 47 nM
CC(=O)N[C@@H](Cc1cnc[nH]1)C(=O)N[C@H](Cc1ccc(Cl)cc1)C(=O)N1Cc2ccccc2CC1C(=O)N[C@@H](Cc1ccc(I)cc1)C(N)=O (some centres undefined)	15 nM	790 nM	–
CC(=O)N[C@@H](Cc1c[nH]cn1)C(=O)N[C@H](Cc1ccccc1)C(=O)N1Cc2ccccc2C[C@H]1C(=O)N[C@@H](Cc1c[nH]c2ccccc12)C(N)=O	–	–	EC50 (Melanocortin receptor 4 [1]; hek293): 204 nM; EC50 (Melanocortin receptor 4 [2]; hek293): 18800 nM
CC(=O)N[C@@H](Cc1c[nH]cn1)C(=O)N[C@H](Cc1ccc(I)cc1)C(=O)N[C@@H](CCCNC(=N)N)C(=O)N1Cc2ccccc2C[C@H]1C(N)=O (Ac-H[dPhe(4-I)]R[Tic]-NH2)	89 nM	6920 nM	–
CC(=O)N[C@@H](CCCNC(=N)N)C(=O)N[C@H](Cc1ccc(I)cc1)C(=O)N[C@@H](CCCNC(=N)N)C(=O)N1Cc2ccccc2C[C@H]1C(N)=O	57 nM	3170 nM	–
CC(=O)N[C@@H](Cc1cnc[nH]1)C(=O)N[C@H](Cc1ccccc1)C(=O)N[C@@H](CCCNC(=N)N)C(=O)N[C@@H](Cc1ccc([N+](=O)[O-])cc1)C(N)=O	195 nM	23000 nM	–
CC(=O)N[C@H](CCCNC(=N)N)C(=O)N[C@H](Cc1ccccc1)C(=O)N[C@@H](CCCNC(=N)N)C(=O)N[C@@H](Cc1c[nH]c2ccccc12)C(N)=O	40 nM	1240 nM	–
CC(=O)N1Cc2ccccc2C[C@H]1C(=O)N[C@H](Cc1ccccc1)C(=O)N[C@@H](CCCNC(=N)N)C(=O)N[C@@H](Cc1c[nH]c2ccccc12)C(N)=O (Ac-[Tic][dF]RW-NH2)	–	–	EC50 (Melanocortin receptor 4 [1]; hek293): 15 nM; EC50 (Melanocortin receptor 4 [2]; hek293): 4940 nM
CC(=O)N[C@@H](Cc1cnc[nH]1)C(=O)N[C@H](Cc1ccccc1)C(=O)N[C@@H](CCCNC(=N)N)C(=O)N1Cc2ccccc2CC1C(N)=O (some centres undefined)	> 10000 nM	> 100000 nM	–
CC(=O)N[C@@H](CCCNC(=N)N)C(=O)N[C@H](Cc1ccc(Cl)cc1)C(=O)N[C@@H](CCCNC(=N)N)C(=O)N1Cc2ccccc2C[C@H]1C(N)=O	110 nM	2720 nM	–
CC(=O)N[C@@H](Cc1cnc[nH]1)C(=O)N[C@H](Cc1ccc(I)cc1)C(=O)N1Cc2ccccc2CC1C(=O)N[C@@H](Cc1ccc(I)cc1)C(N)=O (some centres undefined)	7.42 nM	570 nM	–

— ChEMBL document CHEMBL3286334, “Identification of tetrapeptides from a mixture based positional scanning library that can restore nM full agonist function of the L106P, I69T, I102S, A219V, C271Y, and C271R human melanocortin-4 polymorphic receptors (hMC4Rs)” (J Med Chem, 2014)
